Reference: article PMC11671526, “β-caryophyllene sensitizes hepatocellular carcinoma cells to chemotherapeutics and inhibits cell malignancy through targeting MAPK signaling pathway” (Frontiers in Pharmacology, 2024)

System: HepG2 cells
Experiment: RNA-seq transcriptome analysis of differentially expressed genes
Assay type: cell-based, human
Conditions: BCP vs control HepG2, RNA-seq
Protocol: The quality and concentration of RNA were examined by MOPS RNA electrophoresis and Eppendorf BioSpectrometer. The transcriptome analysis was performed by BGI-Wuhan China. The RNA-seq dataset of this study is accessible in the Gene Expression Omnibus (GEO) with an access number of GSE276099. The sequence library for each sample was prepared using the BGISEQ-500 platform with a 50-bp single-end (SE50) format. […]2.2.1) was used to align the clean reads to the reference genome and alignment of the clean reads to the reference genes was carried out using Bowtie2 (v2.4.5) ([Langmead and Salzberg, 2012]; [Kim et al., 2015]). Gene expression levels were calculated by RSEM (v1.3.1) ([Li and Dewey, 2011]). Analysis of differential gene expression was performed using edgeR in the Bioconductor software package ([Robinson et al., 2010]). Using a standard protocol, the RNA samples were also examined by reverse transcription and quantitative polymerase chain reaction (RT-qPCR). In brief, for reverse transcription, total RNA (1 μg) and gDNA wiper Mix were incubated at 42°C for 2 min. The samples were immediately incubated with a master mix containing 10 pmol/μL of poly (dT) primers at 37°C for 15 min and 85°C for 5 s. To detect the expression of specific genes by qPCR analysis, gene-specific primers (shown in Supplementary Table S1) were mixed with the ChamQ Universal SYBER qPCR Master Mix and the reaction was conducted using the Roche Lightcycler 480. The GAPDH value was used to normalize the results of each gene. The RNA-seq data of BCP-treated HepG2 cells were screened for DEGs. Gene symbols were turned into Enterz ID using the org.Hs.eg.db Bio-conductor R package. The cluster profiler (v4.6.2) package was used to perform the Kyoto Encyclopedia of Genes and Genomes (KEGG) and Gene Ontology (GO) enrichment analyses ([Wu et al., 2021]). Following the Transcript per million (TPM) data of the dataset, the line chart, and heatmap were plotted using ggplot2 and pheatmap R packages, respectively.

With `C=C1CC/C=C(\C)CC[C@@H]2[C@@H]1CC2(C)C` [BCP, β-caryophyllene] the ABCA4 change was “Up”, the “ABCA4 logFC” value was 1.08 and the ABHD16B change was “Down”. The “ABHD16B logFC” value was -0.7624, the ACCS change was “Up” and the “ACCS logFC” value was 0.7756. For the same compound, the ADAT3 change was “Down”, the “ADAT3 logFC” value was -0.6489 and the ADGRE1 change was “Down”. For the same compound, the “ADGRE1 logFC” value was -1.049, the ADORA1 change was “Down” and the “ADORA1 logFC” value was -0.951. For the same compound, the ADORA2A change was “Down”, the “ADORA2A logFC” value was -0.7747 and the ADRA2C change was “Down”. The “ADRA2C logFC” value was -0.8257, the AGT change was “Up” and the “AGT logFC” value was 0.6624. The AKR1C1 change was “Down”, the “AKR1C1 logFC” value was -0.9841 and the ALOX12B change was “Down”. The “ALOX12B logFC” value was -0.7891, the ALOXE3 change was “Down” and the “ALOXE3 logFC” value was -1.101. For the same compound, the ANK1 change was “Down”, the “ANK1 logFC” value was -0.6258 and the ANK2 change was “Up”. For the same compound, the “ANK2 logFC” value was 0.6135, the ANKRD63 change was “Down” and the “ANKRD63 logFC” value was -1.109. For the same compound, the ANO9 change was “Up”, the “ANO9 logFC” value was 0.6598 and the AOX1 change was “Down”. For the same compound, the “AOX1 logFC” value was -0.7887, the ARHGAP25 change was “Down” and the “ARHGAP25 logFC” value was -0.9496. For the same compound, the ARTN change was “Down”, the “ARTN logFC” value was -0.6893 and the B3GNT4 change was “Down”. For the same compound, the “B3GNT4 logFC” value was -0.8549, the BEST1 change was “Up” and the “BEST1 logFC” value was 0.7297. The BOC change was “Down”, the “BOC logFC” value was -1.001 and the BOLA2B change was “Down”. The “BOLA2B logFC” value was -1.579, the BORCS8-MEF2B change was “Up” and the “BORCS8-MEF2B logFC” value was 0.7383. The C4orf50 change was “Down”, the “C4orf50 logFC” value was -0.84 and the C7orf31 change was “Up”. The “C7orf31 logFC” value was 0.8499, the C14orf132 change was “Down” and the “C14orf132 logFC” value was -0.9885. For the same compound, the C15orf62 change was “Down”, the “C15orf62 logFC” value was -0.8151 and the CACNA1D change was “Up”. The “CACNA1D logFC” value was 0.899, the CACNA1E change was “Down” and the “CACNA1E logFC” value was -0.8241. For the same compound, the CAMK2N2 change was “Down”, the “CAMK2N2 logFC” value was -0.8129 and the CARMIL2 change was “Down”. For the same compound, the “CARMIL2 logFC” value was -0.818, the CDC25C change was “Up” and the “CDC25C logFC” value was 0.5857. For the same compound, the CENPE change was “Up”, the “CENPE logFC” value was 0.6854 and the CERS4 change was “Down”. For the same compound, the “CERS4 logFC” value was -0.7861, the CHST6 change was “Down” and the “CHST6 logFC” value was -0.6638. For the same compound, the CILP2 change was “Down”, the “CILP2 logFC” value was -0.9152 and the CLEC7A change was “Down”. For the same compound, the “CLEC7A logFC” value was -1.627, the CLGN change was “Up” and the “CLGN logFC” value was 0.5838. For the same compound, the COL9A2 change was “Up”, the “COL9A2 logFC” value was 0.6974 and the CPAMD8 change was “Up”. The “CPAMD8 logFC” value was 0.9195, the CRYBG1 change was “Down” and the “CRYBG1 logFC” value was -0.6404. The CSF1R change was “Up”, the “CSF1R logFC” value was 1.132 and the CTNNBIP1 change was “Up”. The “CTNNBIP1 logFC” value was 0.608, the CYP24A1 change was “Up” and the “CYP24A1 logFC” value was 0.7733. The CYP39A1 change was “Down”, the “CYP39A1 logFC” value was -0.966 and the D2HGDH change was “Up”. The “D2HGDH logFC” value was 0.7244, the DEPTOR change was “Down” and the “DEPTOR logFC” value was -0.8053. For the same compound, the DOK7 change was “Up”, the “DOK7 logFC” value was 0.6123 and the DPF1 change was “Down”. For the same compound, the “DPF1 logFC” value was -0.7852, the DUSP18 change was “Down” and the “DUSP18 logFC” value was -1.0326. For the same compound, the ELOVL6 change was “Down”, the “ELOVL6 logFC” value was -0.6915 and the EN2 change was “Down”. The “EN2 logFC” value was -0.8276, the ENPP1 change was “Up” and the “ENPP1 logFC” value was 0.6168. The EPHA7 change was “Up”, the “EPHA7 logFC” value was 0.6078 and the ERVV-2 change was “Up”. For the same compound, the “ERVV-2 logFC” value was 0.6706, the FAAH2 change was “Up” and the “FAAH2 logFC” value was 0.6861. For the same compound, the FAM72A change was “Up”, the “FAM72A logFC” value was 0.7318 and the FAM167B change was “Down”. For the same compound, the “FAM167B logFC” value was -1.112, the FAM222A change was “Down” and the “FAM222A logFC” value was -0.6769. For the same compound, the FAR2 change was “Down”, the “FAR2 logFC” value was -0.7201 and the FBXL22 change was “Down”. The “FBXL22 logFC” value was -1.204, the FDXACB1 change was “Down” and the “FDXACB1 logFC” value was -1.018. The FES change was “Down”, the “FES logFC” value was -1.129 and the FGF11 change was “Down”. The “FGF11 logFC” value was -0.6148, the FGF12 change was “Up” and the “FGF12 logFC” value was 0.873. For the same compound, the FHIT change was “Up”, the “FHIT logFC” value was 0.955 and the FICD change was “Up”. For the same compound, the “FICD logFC” value was 0.637, the FUT3 change was “Down” and the “FUT3 logFC” value was -0.9413. For the same compound, the GBP4 change was “Down”, the “GBP4 logFC” value was -1.639 and the GGT2 change was “Up”. The “GGT2 logFC” value was 0.9035, the GJD3 change was “Down” and the “GJD3 logFC” value was -0.6605. The GPD1 change was “Up”, the “GPD1 logFC” value was 0.9345 and the GPR3 change was “Down”. The “GPR3 logFC” value was -1.067, the GPR158 change was “Up” and the “GPR158 logFC” value was 0.961. For the same compound, the GRIP2 change was “Down”, the “GRIP2 logFC” value was -0.6933 and the H3C6 change was “Down”. For the same compound, the “H3C6 logFC” value was -0.6656, the H4C8 change was “Down” and the “H4C8 logFC” value was -0.9939. The HBA1 change was “Down”, the “HBA1 logFC” value was -0.7699 and the HPD change was “Up”. The “HPD logFC” value was 0.6168, the HPGD change was “Down” and the “HPGD logFC” value was -0.5852. The IFIT1 change was “Down”, the “IFIT1 logFC” value was -0.7944 and the IFIT2 change was “Down”. For the same compound, the “IFIT2 logFC” value was -0.7214, the IL7R change was “Down” and the “IL7R logFC” value was -0.8033. For the same compound, the IMMP2L change was “Up”, the “IMMP2L logFC” value was 0.6542 and the IQCG change was “Up”. The “IQCG logFC” value was 0.9618, the ISYNA1 change was “Down” and the “ISYNA1 logFC” value was -1.197. For the same compound, the JMJD7-PLA2G4B change was “Up”, the “JMJD7-PLA2G4B logFC” value was 0.8598 and the KCP change was “Up”. The “KCP logFC” value was 1.479, the KHDC1 change was “Down” and the “KHDC1 logFC” value was -0.6694. For the same compound, the KRT34 change was “Up”, the “KRT34 logFC” value was 0.7278 and the LOC100133315 change was “Up”. The “LOC100133315 logFC” value was 0.7126, the LOC102724200 change was “Up” and the “LOC102724200 logFC” value was 1.529. For the same compound, the LOC102724788 change was “Up”, the “LOC102724788 logFC” value was 0.903 and the LOC107984638 change was “Down”. The “LOC107984638 logFC” value was -1.075, the LRRC56 change was “Down” and the “LRRC56 logFC” value was -0.591. For the same compound, the LRRK2 change was “Down”, the “LRRK2 logFC” value was -0.8118 and the MAST4 change was “Down”. The “MAST4 logFC” value was -0.6435, the MCTP2 change was “Up” and the “MCTP2 logFC” value was 0.7514. For the same compound, the MORN4 change was “Up”, the “MORN4 logFC” value was 0.6216 and the MVB12B change was “Up”. The “MVB12B logFC” value was 0.6743, the MXRA8 change was “Down” and the “MXRA8 logFC” value was -0.6329. The MYB change was “Down”, the “MYB logFC” value was -0.6747 and the MYH14 change was “Up”. For the same compound, the “MYH14 logFC” value was 0.8331, the MYPN change was “Up” and the “MYPN logFC” value was 0.6564. The NCF2 change was “Down”, the “NCF2 logFC” value was -1.214 and the NEBL change was “Up”. For the same compound, the “NEBL logFC” value was 0.5931, the NECAB2 change was “Up” and the “NECAB2 logFC” value was 0.9799. The NEIL3 change was “Up”, the “NEIL3 logFC” value was 0.6475 and the NEK11 change was “Up”. For the same compound, the “NEK11 logFC” value was 0.7755, the NFE2 change was “Down” and the “NFE2 logFC” value was -0.6303. The NPHS1 change was “Up”, the “NPHS1 logFC” value was 1.189 and the NPIPA3 change was “Down”. For the same compound, the “NPIPA3 logFC” value was -0.8968, the NPY4R change was “Up” and the “NPY4R logFC” value was 0.7533. The NR5A2 change was “Down”, the “NR5A2 logFC” value was -0.6198 and the NR6A1 change was “Down”. The “NR6A1 logFC” value was -0.7194, the NYAP1 change was “Down” and the “NYAP1 logFC” value was -0.7161.
